The record followed here is patent US20220151962A1, “NOVEL INHIBITORS OF HISTONE DEACETYLASE 10” (Deutsches Krebsforschungszentrum, priority 2019, published 2022).

One experiment concerns the target T1, HDAC1 (Homo sapiens, UniProt Q13547).
T1 construct: purchased BPS Bioscience 50051
Briefly: HDAC-Glo I/II assay, HDAC1. It is filed as biochemical. The following applies: recombinant human HDAC1, HDAC-Glo; for IC50: read-out: pIC50 HDAC1 Glo (converted).

For a further experiment, the target named is T2, HDAC2 (Homo sapiens, UniProt Q92769).
T2 construct: purchased BPS Bioscience 50002
Description: HDAC-Glo I/II assay, HDAC2. It is filed as biochemical. The following applies: recombinant human HDAC2, HDAC-Glo; for IC50: read-out: pIC50 HDAC2 Glo (converted).

For another experiment, the target named is T3, HDAC3/NcoR2 complex (Homo sapiens, UniProt O15379).
T3 construct: purchased BPS Bioscience 50003
Briefly: HDAC-Glo I/II assay, HDAC3/NcoR2 complex. Format: biochemical. The following applies: recombinant human HDAC3/NcoR2 complex; for IC50: read-out: pIC50 HDAC3 Glo (converted).

For another experiment, the target named is T4, HDAC6 (Homo sapiens, UniProt Q9UBN7).
T4 construct: purchased BPS Bioscience 50006
T4 sequence (Q9UBN7 1-1215): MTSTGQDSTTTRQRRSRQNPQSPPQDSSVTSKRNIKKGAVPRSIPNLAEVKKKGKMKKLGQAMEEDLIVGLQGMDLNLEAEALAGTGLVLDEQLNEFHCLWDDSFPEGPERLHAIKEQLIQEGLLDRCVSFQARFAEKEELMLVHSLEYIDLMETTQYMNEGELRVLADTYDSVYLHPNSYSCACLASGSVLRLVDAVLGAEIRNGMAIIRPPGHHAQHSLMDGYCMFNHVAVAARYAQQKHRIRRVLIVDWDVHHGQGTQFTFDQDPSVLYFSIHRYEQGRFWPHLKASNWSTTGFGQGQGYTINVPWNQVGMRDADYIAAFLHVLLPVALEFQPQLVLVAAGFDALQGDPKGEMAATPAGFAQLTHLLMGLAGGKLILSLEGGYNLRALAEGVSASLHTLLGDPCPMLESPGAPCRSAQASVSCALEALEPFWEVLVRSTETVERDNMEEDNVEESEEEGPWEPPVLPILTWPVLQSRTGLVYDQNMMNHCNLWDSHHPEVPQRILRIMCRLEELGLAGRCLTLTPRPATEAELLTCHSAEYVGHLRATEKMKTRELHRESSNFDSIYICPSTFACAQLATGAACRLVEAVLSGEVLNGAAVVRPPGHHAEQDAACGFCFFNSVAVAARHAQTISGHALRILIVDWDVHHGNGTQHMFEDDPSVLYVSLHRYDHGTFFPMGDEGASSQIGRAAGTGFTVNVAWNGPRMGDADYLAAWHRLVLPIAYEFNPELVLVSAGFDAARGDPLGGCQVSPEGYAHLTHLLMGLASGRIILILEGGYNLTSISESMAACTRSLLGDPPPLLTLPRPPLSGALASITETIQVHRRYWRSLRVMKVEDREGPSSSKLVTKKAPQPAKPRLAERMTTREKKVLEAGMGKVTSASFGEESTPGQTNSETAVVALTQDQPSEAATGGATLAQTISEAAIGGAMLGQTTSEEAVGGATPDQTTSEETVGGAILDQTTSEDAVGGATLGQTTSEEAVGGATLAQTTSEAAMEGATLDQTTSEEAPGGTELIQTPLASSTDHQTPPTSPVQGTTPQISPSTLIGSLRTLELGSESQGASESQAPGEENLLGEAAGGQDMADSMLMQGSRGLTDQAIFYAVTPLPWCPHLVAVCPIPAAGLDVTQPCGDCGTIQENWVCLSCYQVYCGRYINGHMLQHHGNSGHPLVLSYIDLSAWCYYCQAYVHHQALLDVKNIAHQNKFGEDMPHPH
Briefly: HDAC-Glo I/II assay, HDAC6. The note with it: recombinant human HDAC6, HDAC-Glo; read-out: pIC50 HDAC6 Glo (converted). Format: biochemical.

In a further experiment the target is T5, TwinStrep-GST-HDAC10 (Homo sapiens, UniProt Q969S8).
T5 construct: made in house; host or cells: Sf21 insect cells (baculovirus, pFastBac1)
T5 sequence (Q969S8 1-669): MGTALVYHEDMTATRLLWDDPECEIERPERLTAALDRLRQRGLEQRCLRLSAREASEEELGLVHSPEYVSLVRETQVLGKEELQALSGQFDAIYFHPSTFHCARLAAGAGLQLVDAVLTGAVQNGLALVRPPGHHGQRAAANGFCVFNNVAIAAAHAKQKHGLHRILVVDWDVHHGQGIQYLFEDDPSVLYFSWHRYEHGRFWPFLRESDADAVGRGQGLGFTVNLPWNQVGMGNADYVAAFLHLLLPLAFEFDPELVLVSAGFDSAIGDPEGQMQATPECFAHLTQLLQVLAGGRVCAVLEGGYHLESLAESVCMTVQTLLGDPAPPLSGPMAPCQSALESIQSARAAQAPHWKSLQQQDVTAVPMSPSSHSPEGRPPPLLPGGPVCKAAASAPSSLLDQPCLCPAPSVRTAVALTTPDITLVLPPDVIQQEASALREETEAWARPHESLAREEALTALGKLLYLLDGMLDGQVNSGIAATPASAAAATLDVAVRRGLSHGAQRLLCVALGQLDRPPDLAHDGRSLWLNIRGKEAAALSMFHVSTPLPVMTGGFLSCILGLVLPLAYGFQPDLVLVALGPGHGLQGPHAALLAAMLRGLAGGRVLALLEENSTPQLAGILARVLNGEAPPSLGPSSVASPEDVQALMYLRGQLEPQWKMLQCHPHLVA
Briefly: HDAC10 TR-FRET assay (Tubastatin-AF647-Tracer displacement). The note with it: TR-FRET, 60 min at rt; for IC50: read-out: pIC50 HDAC10 FRET (converted). It is filed as binding.

A further experiment has as its target T6, HDAC8 (Homo sapiens, UniProt Q9BY41).
T6 sequence (Q9BY41 1-377): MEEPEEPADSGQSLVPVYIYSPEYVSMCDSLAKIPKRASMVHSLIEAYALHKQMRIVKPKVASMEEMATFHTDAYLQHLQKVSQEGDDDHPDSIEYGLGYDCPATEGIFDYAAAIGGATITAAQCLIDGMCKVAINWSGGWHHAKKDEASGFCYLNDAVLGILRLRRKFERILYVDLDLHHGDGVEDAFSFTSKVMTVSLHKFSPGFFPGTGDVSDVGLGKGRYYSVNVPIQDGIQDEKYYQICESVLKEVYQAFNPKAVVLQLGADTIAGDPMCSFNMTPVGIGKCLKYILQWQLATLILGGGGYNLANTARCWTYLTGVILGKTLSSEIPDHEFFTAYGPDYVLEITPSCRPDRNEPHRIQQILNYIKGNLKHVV
Description: HDAC-Glo I/II assay, HDAC8. Format: biochemical. Set-up: purchased BPS Bioscience 50008. The note with it: recombinant human HDAC8, HDAC-Glo; for IC50: read-out: pIC50 HDAC8 Glo (converted).

T2 sequence (Q92769 whole entry): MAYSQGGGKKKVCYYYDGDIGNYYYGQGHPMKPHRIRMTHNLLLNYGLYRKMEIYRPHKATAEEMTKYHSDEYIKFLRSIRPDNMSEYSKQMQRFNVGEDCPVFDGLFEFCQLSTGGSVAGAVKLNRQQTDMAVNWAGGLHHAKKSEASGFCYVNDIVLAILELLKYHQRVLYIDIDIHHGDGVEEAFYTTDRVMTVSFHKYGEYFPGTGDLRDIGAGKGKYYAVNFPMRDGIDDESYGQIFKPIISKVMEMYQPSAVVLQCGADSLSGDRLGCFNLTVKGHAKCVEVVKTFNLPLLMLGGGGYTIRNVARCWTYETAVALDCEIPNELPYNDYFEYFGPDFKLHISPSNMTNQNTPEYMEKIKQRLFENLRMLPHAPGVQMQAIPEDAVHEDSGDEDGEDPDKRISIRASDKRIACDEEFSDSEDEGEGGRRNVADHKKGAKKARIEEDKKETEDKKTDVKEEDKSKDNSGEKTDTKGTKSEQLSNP
T3 sequence (O15379 whole entry): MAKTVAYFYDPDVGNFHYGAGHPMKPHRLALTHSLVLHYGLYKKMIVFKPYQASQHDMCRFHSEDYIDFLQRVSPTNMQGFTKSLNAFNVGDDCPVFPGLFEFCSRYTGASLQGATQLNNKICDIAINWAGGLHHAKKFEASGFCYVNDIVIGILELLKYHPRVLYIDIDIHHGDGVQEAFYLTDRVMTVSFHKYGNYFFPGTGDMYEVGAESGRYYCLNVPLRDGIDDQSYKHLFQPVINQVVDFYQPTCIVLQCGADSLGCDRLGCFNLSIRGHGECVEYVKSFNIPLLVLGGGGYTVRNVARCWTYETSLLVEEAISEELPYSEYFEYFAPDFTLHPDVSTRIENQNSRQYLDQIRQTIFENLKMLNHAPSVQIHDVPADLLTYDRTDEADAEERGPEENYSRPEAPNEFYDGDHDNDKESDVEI
T3 sequence (Q9Y618 395-489 partner limits assumed): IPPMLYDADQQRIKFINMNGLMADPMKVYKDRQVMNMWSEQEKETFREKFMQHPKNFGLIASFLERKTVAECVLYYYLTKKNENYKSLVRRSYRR
T1 sequence (Q13547 whole entry): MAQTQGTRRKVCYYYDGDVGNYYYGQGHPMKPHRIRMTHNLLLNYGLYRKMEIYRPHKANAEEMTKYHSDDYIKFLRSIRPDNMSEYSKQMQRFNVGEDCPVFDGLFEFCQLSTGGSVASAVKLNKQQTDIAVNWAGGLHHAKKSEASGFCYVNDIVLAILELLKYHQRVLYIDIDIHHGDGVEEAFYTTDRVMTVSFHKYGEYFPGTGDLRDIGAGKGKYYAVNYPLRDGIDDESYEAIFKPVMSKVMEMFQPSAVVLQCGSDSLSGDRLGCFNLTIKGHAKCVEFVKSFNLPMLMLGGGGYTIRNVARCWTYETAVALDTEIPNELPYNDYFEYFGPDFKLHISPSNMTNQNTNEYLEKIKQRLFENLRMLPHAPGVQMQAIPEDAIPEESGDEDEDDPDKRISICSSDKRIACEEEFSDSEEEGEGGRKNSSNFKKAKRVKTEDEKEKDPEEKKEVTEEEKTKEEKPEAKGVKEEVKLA

Regarding `CN(CCCNC(=O)c1ccccc1)CCCC(=O)NO` [DKFZ-806, N-(3-((4-(Hydroxyamino)-4-oxobutyl)(methyl)amino)propyl)benzamide], the IC50 is 50.1 µM at HDAC1; 79.4 µM at HDAC2; greater than 100 µM on HDAC3/NcoR2 complex; 25.1 µM at HDAC6; 0.02 µM on TwinStrep-GST-HDAC10; 25.1 µM at HDAC8.
Take `CN(CCCC(=O)NO)CCNC(=O)c1ccc(-c2ccccc2)cc1` [DKFZ-746, N-(2-((4-(Hydroxyamino)-4-oxobutyl)(methyl)amino)ethyl)-[1,1′-biphenyl]-4-carboxamide]: the IC50 on HDAC1 is 2.51 µM; on HDAC2, roughly 39.8 µM; on HDAC3/NcoR2 complex it was roughly 31.6 µM; at HDAC6 it was 3.16 µM; at TwinStrep-GST-HDAC10 it was 0.0251 µM; at HDAC8 it was 5.01 µM.
With `Cc1[nH]c2ccccc2c1CC(=O)NCCN(C)CCCC(=O)NO` [DKFZ-749, N-Hydroxy-4-(methyl(2-(2-(2-methyl-1H-indol-3-yl)acetamido)ethyl)amino)butanamide], the IC50 is 10 µM on HDAC1; greater than 100 µM at HDAC2; greater than 100 µM at HDAC3/NcoR2 complex; 3.16 µM at HDAC6; 0.0794 µM at TwinStrep-GST-HDAC10; 2.51 µM at HDAC8.
For `CN(CCCC(=O)NO)CC(=O)Nc1ccccc1` [DKFZ-772, N-Hydroxy-4-(methyl(2-oxo-2-(phenylamino)ethyl)amino)butanamide], the IC50 on HDAC1 is 20 µM; on HDAC2, 31.6 µM; at HDAC3/NcoR2 complex, greater than 100 µM; at HDAC8 it was 2.51 µM.
Consider `Cc1[nH]c2ccccc2c1C(=O)NCCN(C)CCCC(=O)NO` [DKFZ-756, N-(2-((4-(Hydroxyamino)-4-oxobutyl)(methyl)amino)ethyl)-2-methyl-1H-indole-3-carboxamide], for which the IC50 at HDAC1 was 7.94 µM; on HDAC2, greater than 100 µM; at HDAC3/NcoR2 complex it was roughly 79.4 µM; on HDAC6 it was 1.58 µM; on TwinStrep-GST-HDAC10, 0.02 µM; at HDAC8 it was 5.01 µM.
Consider `CN(CCCC(=O)NO)CCNC(=O)c1ccc(N)cc1` [DKFZ-752, 4-Amino-N-(2-((4-(hydroxyamino)-4-oxobutyl)(methyl)amino)ethyl)benzamide], for which the IC50 is 15.8 µM on HDAC1; greater than 100 µM on HDAC2; greater than 100 µM on HDAC3/NcoR2 complex; 3.98 µM on HDAC6; 0.0158 µM on TwinStrep-GST-HDAC10; 20 µM on HDAC8.
On to `CN(CCCC(=O)NO)CCNC(=O)c1ccccc1` [DKFZ-728, N-(2-((4-(Hydroxyamino)-4-oxobutyl)(methyl)amino)ethyl)benzamide], for which the IC50 on HDAC2 is 50.1 µM; on HDAC3/NcoR2 complex it was greater than 100 µM; at HDAC8, 15.8 µM.
With `CN(CCCC(=O)NO)CCC(=O)Nc1ccccc1` [DKFZ-711], the IC50 at HDAC3/NcoR2 complex was 79.4 µM; at HDAC8 it was 3.98 µM.
Consider `CN(CCCC(=O)NO)CCNC(=O)c1cccc(N)c1` [DKFZ-747, 3-Amino-N-(2-((4-(hydroxyamino)-4-oxobutyl)(methyl)amino)ethyl)benzamide], for which the IC50 is 25.1 µM at HDAC1; greater than 100 µM on HDAC2; greater than 100 µM at HDAC3/NcoR2 complex; 6.31 µM at HDAC6; 0.0398 µM at TwinStrep-GST-HDAC10; 12.6 µM on HDAC8.
As for “(1r,3r)-N-Hydroxy-3-((3-oxo-3-(phenylamino)propyl)amino)cyclobutanecarboxamide [DKFZ-759]”, the “pIC50 HDAC1 Glo” value at HDAC1 stood at 4.4. Also, the “pIC50 HDAC2 Glo” value on HDAC2 is listed as less than 4.0. Besides, the “pIC50 HDAC3 Glo” value at HDAC3/NcoR2 complex was less than 4.0. Also, the “pIC50 HDAC10 FRET” value on TwinStrep-GST-HDAC10 was 6.3. At HDAC8, the “pIC50 HDAC8 Glo” value came out at 4.9.
Turning to `CN(CCCC(=O)NO)CCNC(=O)c1ccc(O)cc1` [DKFZ-751, 4-Hydroxy-N-(2-((4-(hydroxyamino)-4-oxobutyl)(methyl)amino)ethyl)benzamide], the IC50 at HDAC1 was 15.8 µM; at HDAC2, greater than 100 µM; at HDAC3/NcoR2 complex it was greater than 100 µM; at HDAC6 it was 2 µM; at TwinStrep-GST-HDAC10 it was 0.00794 µM; on HDAC8 it was 25.1 µM.
Take `CN(CCCC(=O)NO)CCNS(=O)(=O)c1ccccc1` [DKFZ-758, N-Hydroxy-4-(methyl(2-(phenylsulfonamido)ethyl)amino)butanamide]: the IC50 on HDAC1 is 25.1 µM; at HDAC2, greater than 100 µM; at HDAC3/NcoR2 complex it was greater than 100 µM; on HDAC6, 6.31 µM; at TwinStrep-GST-HDAC10, 0.0316 µM; on HDAC8, 6.31 µM.
As to `CN(CCCC(=O)NO)CCNC(=O)c1ccc2cn[nH]c2c1` [DKFZ-754, N-(2-((4-(Hydroxyamino)-4-oxobutyl)(methyl)amino)ethyl)-1H-indazole-6-carboxamide], the IC50 is 7.94 µM on HDAC1; greater than 100 µM at HDAC2; greater than 100 µM on HDAC3/NcoR2 complex; 3.16 µM at HDAC6; 0.00794 µM on TwinStrep-GST-HDAC10; 12.6 µM on HDAC8.
On to “(1s,3s)-N-Hydroxy-3-((3-oxo-3-(phenylamino)propyl)amino)cyclobutanecarboxamide [DKFZ-767]”, for which the “pIC50 HDAC1 Glo” value on HDAC1 amounted to 4.9. Besides, the “pIC50 HDAC2 Glo” value on HDAC2 is 4.6. Besides, the “pIC50 HDAC3 Glo” value on HDAC3/NcoR2 complex was roughly 4.0. Besides, the “pIC50 HDAC10 FRET” value at TwinStrep-GST-HDAC10 amounted to 6.9. The “pIC50 HDAC8 Glo” value on HDAC8 is reported as 5.1.
For the compound `CCN(CCCC(=O)NO)CCC(=O)Nc1ccccc1` [DKFZ-714, 4-(Ethyl(3-oxo-3-(phenylamino)propyl)amino)-N-hydroxybutanamide], the IC50 on HDAC1 is 50.1 µM; at HDAC2, greater than 200 µM; on HDAC3/NcoR2 complex, roughly 158 µM; on HDAC6 it was 6.31 µM; at HDAC8 it was 5.01 µM.
